Tests used:
AMPK = experiment: Purified kinase assay (Millipore); assay type: biochemical; conditions: 300 nM ATP
JAK1 = target: T1, JAK1 (Homo sapiens, UniProt P23458); experiment: Purified kinase assay (Millipore); assay type: biochemical; conditions: 300 nM ATP
T1 construct: purchased Millipore

TSSK = experiment: Purified kinase assay (Millipore); assay type: biochemical; conditions: 300 nM ATP
SYK [1] = experiment: Healthy normal human whole blood assay: B-cell, BCR stimulation, CD69 readout; assay type: cell-based
SYK [2] = experiment: Healthy normal human whole blood assay: B-cell, BCR stimulation, pERK Y204 readout; assay type: cell-based
JAK1/3 [3] = experiment: Healthy normal human whole blood assay: B-cell, IL4 stimulation, pSTAT6 Y641 readout; assay type: cell-based
PKC = experiment: Healthy normal human whole blood assay: B-cell, PMA stimulation, pERK Y204 readout; assay type: cell-based
SYK [4] = experiment: Healthy normal human whole blood assay: Basophil, FcεR1 stimulation, CD63 readout; assay type: cell-based
JAK1/3 [5] = experiment: Healthy normal human whole blood assay: T-cell, IL4 stimulation, PSTAT6 Y641 readout; assay type: cell-based
JAK1/TYK2 = experiment: Healthy normal human whole blood assay: Monocytes, IL6 stimulation, pSTAT3 Y705 readout; assay type: cell-based; conditions: Monocyte
JAK2 = experiment: Healthy normal human whole blood assay: Monocytes, GMCSF stimulation, pSTAT5 Y694 readout; assay type: cell-based; conditions: Monocyte
BCR signaling = experiment: Phase 1 study: whole blood PD, BCR signaling; assay type: in vivo, human
Protocol: (§1) Human Whole Blood Assays: Inhibition of SYK- and JAK-dependent and independent signaling was determined by stimulating human whole blood with various agonists against BCR and cytokine receptors. 100 μL aliquots of heparinized healthy human whole blood was stimulated as previously described (Coffey et al, J. of Pharm. and Experimental Therapeutics, 351:538-548, 2014), using an 8-point concentration curve to determine IC50's. Signaling and activation responses were determined by Fluorescence-activated cell sorting (“FACS”). For the clinical trial, whole blood samples were collected prior to and after dosing. Percent inhibition was calculated by normalizing to the pre-dose stimulation response.
(§2) Pharmacokinetics (“PK”), pharmacodynamics (“PD”), and safety were monitored. Response was assessed by standard criteria. The level of inhibition of SYK and JAK was determined using a variety of whole blood assays measuring signaling via receptors for the B-cell antigen, IL2, IL4, IL6, and GM-CSF. Serum markers of tumor burden, including CCL3, CCL4, and other markers of inflammation (β2M and CRP), were also being measured.

SYK and JAK signaling = experiment: Phase 1 study: whole blood PD, SYK and JAK signaling; assay type: in vivo, human
Protocol: as §1, §2

IL2, IL4, IL6 signaling = experiment: Phase 1 study: whole blood PD, IL2, IL4, IL6 (JAK/STAT) signaling; assay type: in vivo, human
Protocol: as §1, §2

GM-CSF signaling = experiment: Phase 1 study: whole blood PD, GM-CSF (JAK2) signaling; assay type: in vivo, human
Protocol: as §1, §2

[6] = Phase 1 study: safety and tolerability; assay type: in vivo, human; conditions: for tolerability: patients with lymphoid malignancies
primary CLL cells = experiment: Primary CLL apoptosis (propidium iodide/Annexin V, PARP cleavage); assay type: cell-based, human
Protocol: (§3) Isolated CLL cells were cultured in RPMI-1640 with 15% fetal bovine serum (Gibco, Grand Island, NY, USA), penicillin (100 IU), and streptomycin (100 μg/mL), at a density of 1×10^7 cells/mL in the presence or absence of […] CpG, 100 ng/mL CD40L, 10 ng/mL IL-4. Anti-IgM stimulation was conducted with plate-bound anti-IgM (10 μg/mL). CLL cells were stimulated with 10 ng/mL IL-6 (R&D Systems, Minneapolis, MN), to detect the phosphorylation of JAK1/JAK2 (Cell Signaling Technology, Danvers, MA) and STAT3 (Cell Signaling Technology, Danvers, MA, USA).

[7] = system: anti-IgM induced signalling pathways; experiment: Primary CLL cells: B cell receptor induced signalling (immunoblotting, flow cytometry); assay type: cell-based; conditions: primary human CLL cells
Protocol: as §3

[8] = system: IL-4 induced STAT6 phosphorylation; experiment: Primary CLL cells: IL-4 induced signalling; assay type: cell-based, human
Protocol: as §3

[9] = system: ibrutinib-sensitive primary CLL cells; experiment: BrdU proliferation assay, primary CLL cells of ibrutinib responders; assay type: cell-based, human; conditions: 250 nM, combined stimulation, day 8
[10] = system: ibrutinib-resistant CLL cells (BTK^C481S, BTKT^316A); experiment: BrdU proliferation assay, CLL cells of ibrutinib-relapsed patients; assay type: cell-based, human; conditions: three ibrutinib-relapsed patients
[11] = system: BTK^C481S-transfected TMD8 cells; experiment: Cell growth of transfected TMD8 cells (Muse Count & Viability); assay type: cell-based; conditions: 250 nM, 7 days
From the text: Cell transfection, cell count and viability assay: TMD8 cells were transfected with constructs of WT BTK or BTK^C481S mutants using kit V, Program U-13 on Amaxa Nucleofector, according to the manufacturer's protocols (Amaxa, Cologne, Germany). After transfection, the cells were co-cultured with NKTert cells in a 24-well plate for 24 hrs for recovery.

Solubility = assay type: physicochemical; conditions: contemplated to limit dissolution
[12] = 24 hours, in the presence of ZVAD

T1 sequence (P23458 whole entry): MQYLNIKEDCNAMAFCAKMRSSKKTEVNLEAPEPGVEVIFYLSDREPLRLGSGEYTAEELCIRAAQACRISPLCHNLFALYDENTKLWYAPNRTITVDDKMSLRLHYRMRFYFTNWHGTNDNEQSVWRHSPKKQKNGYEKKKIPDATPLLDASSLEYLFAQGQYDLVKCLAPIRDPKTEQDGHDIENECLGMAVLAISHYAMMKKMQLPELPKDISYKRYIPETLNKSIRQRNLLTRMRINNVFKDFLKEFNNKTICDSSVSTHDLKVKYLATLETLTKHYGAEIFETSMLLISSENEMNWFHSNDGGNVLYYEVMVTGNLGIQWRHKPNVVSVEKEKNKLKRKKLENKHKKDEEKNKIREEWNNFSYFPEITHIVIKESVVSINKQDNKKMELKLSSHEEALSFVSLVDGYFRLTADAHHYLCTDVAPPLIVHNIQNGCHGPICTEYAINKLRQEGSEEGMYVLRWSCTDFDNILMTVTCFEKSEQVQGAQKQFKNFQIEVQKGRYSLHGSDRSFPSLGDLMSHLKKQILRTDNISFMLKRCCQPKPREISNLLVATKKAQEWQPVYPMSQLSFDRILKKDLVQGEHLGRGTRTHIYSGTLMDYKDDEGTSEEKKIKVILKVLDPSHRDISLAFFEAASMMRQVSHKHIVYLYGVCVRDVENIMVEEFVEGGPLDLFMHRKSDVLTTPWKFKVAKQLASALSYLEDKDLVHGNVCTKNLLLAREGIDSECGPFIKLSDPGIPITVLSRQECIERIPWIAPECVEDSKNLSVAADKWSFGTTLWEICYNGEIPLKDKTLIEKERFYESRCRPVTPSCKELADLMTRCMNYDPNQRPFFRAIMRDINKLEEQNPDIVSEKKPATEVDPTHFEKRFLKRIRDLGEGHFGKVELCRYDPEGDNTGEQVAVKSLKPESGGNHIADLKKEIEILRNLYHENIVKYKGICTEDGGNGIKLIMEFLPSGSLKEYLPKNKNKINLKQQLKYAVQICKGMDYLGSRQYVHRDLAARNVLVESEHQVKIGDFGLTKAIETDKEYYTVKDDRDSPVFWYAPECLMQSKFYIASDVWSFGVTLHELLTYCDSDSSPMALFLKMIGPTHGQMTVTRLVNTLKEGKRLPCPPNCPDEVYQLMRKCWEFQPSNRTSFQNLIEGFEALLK

## CCS(=O)(=O)N1CCN(c2ccc(Nc3ncc(C(N)=O)c(NC4CC4)n3)cc2)CC1 [cerdulatinib, 4-(cyclopropylamino)-2-(4-(4-(ethylsulfonyl)piperazin-1-yl)phenylamino)pyrimidine-5-carboxamide]
AMPK
  IC50: 6 nM
JAK1
  IC50: 12 nM
TSSK
  IC50: 14 nM
SYK [1]
  IC50: 100 nM
SYK [2]
  IC50: 500 nM
JAK1/3 [3]
  IC50: 920 nM
PKC
  IC50: > 4000 nM
SYK [4]
  IC50: 120 nM
JAK1/3 [5]
  IC50: 580 nM
JAK1/TYK2
  IC50: 350 nM
JAK2
  IC50: > 4000 nM
BCR signaling; 40-100 mg QD doses
  % Inhibition of BCR (Cmin-Cmax): 92-100%
BCR signaling; FL patient, single 65 mg dose
  inhibition of BCR signaling in whole blood: complete inhibition
BCR signaling; Homo sapiens, 15 mg/day, read-out: % Inh. BCR (Cmin-Cmax) Extrapolated from PK/PD fit of all data
  inhibition at 15 mg: 22 to 55%
BCR signaling; Homo sapiens, 30 mg/day, read-out: % Inh. BCR (Cmin-Cmax) Extrapolated from PK/PD fit of all data
  inhibition at 30 mg: 31 to 83%
BCR signaling; Homo sapiens, 40 mg/day, read-out: % Inh. BCR (Cmin-Cmax) Extrapolated from PK/PD fit of all data
  inhibition at 40 mg: 92 to 100%
BCR signaling; Homo sapiens, 100 mg/day (one patient), read-out: % Inh. BCR (Cmin-Cmax) Extrapolated from PK/PD fit of all data
  inhibition at 100 mg: 53 to 98%
BCR signaling; Patient 1, 65 mg PO QD
  % Inhibition BCR signaling: 100%
BCR signaling; Patient 2
  % Inhibition BCR signaling, pERK Y204: 0%
  % Inhibition BCR signaling, pSYK Y525/525: 90%
BCR signaling; steady state Cmin/Cmax
  BCR signaling pathway inhibition: 90-100%
SYK and JAK signaling; 45 mg BID dose
  inhibition of SYK and JAK at SS Cmin in peripheral blood assays: complete inhibition
SYK and JAK signaling; Homo sapiens, Lymphocyte, 672 h, day 28 of cycle 1, plasma about 0.6 to 1 μM (Cmin of 40 mg dose), read-out: saturating inhibition of SYK and JAK in circulating lymphocytes
  inhibition at 40 mg: 80 to 90%
SYK and JAK signaling; exposures of the 30 mg once daily dose
  inhibition of SYK and JAK in peripheral whole blood assays: approximately 50%
SYK and JAK signaling; in vivo
  maximal inhibition of SYK/JAK signaling: greater than 80%
SYK and JAK signaling; oral dosing in patients, multiple cycles of therapy
  inhibition of SYK and JAK safely achieved: > 90%
IL2, IL4, IL6 signaling; Cmin/Cmax
  JAK/STAT signaling inhibition: 60-80%
IL2, IL4, IL6 signaling; Patient 1, 65 mg PO QD
  % Inhibition IL2, IL4, IL6 signaling: 60-100%
GM-CSF signaling; Patient 2
  % Inhibition GM-CSF: 0%
GM-CSF signaling; patients
  inhibition of JAK2 or PKC: no inhibition
[6]; 45 mg BID dose
  dose limiting toxicities (grade 3 pancreatitis and grade 3 fatigue): 2
[6]; PK/AE profile
  SS Cmin at which higher grades of adverse events appeared: 1250 to 1500 nM
[6]; n of 43 patients dosed
  patients with related treatment emergent AE ≥grade 3: abdominal pain: 2
  patients with related treatment emergent AE ≥grade 3: anemia: 3
  patients with related treatment emergent AE ≥grade 3: fatigue: 5
  patients with related treatment emergent AE ≥grade 3: neutropenia: 3
  patients with related treatment emergent AE ≥grade 3: neutrophil count decrease: 2
  patients with related treatment emergent AE ≥grade 3: pneumonia: 2
[6]
  tolerability: well tolerated
[6]; listed as Cerdulatinib
  tolerability: well-tolerated
[6]; up to 100 mg QD
  tolerability in dose escalation: good tolerability
Primary CLL cells
  apoptosis in U-CLL compared to M-CLL and in high versus low CD49d or ZAP70 expression: significantly greater apoptosis
  apoptosis with or without IL-4/CD40L support: induced apoptosis in the presence or absence of IL-4/CD40L support
  cleavage/activation of caspase 3 and 85 kDa PARP sub-fragment: induce cleavage/activation
Primary CLL cells; 24 patients, 24, 48 and 72 hours
  apoptosis of CLL cells: induced apoptosis in a concentration and time dependent manner
Primary CLL cells; [12]
  anti-apoptotic protein MCL1: decreased
  levels of pro-apoptotic protein NOXA: increased
[7]
  concentration (achievable in patients) at which BCR and IL-4 mediated signalling was overcome: ~2.2 µM
[8]
  IL-4 induced STAT6 phosphorylation: abrogated
[8]; [12]
  IL-4 increased surface IgM expression: inhibited
[9]
  BrdU incorporation (proliferation): responded equally well
[10]
  BrdU^+ cell populations (proliferation): almost completely blocked
[11]
  cell growth: effectively blocked
Solubility
  solubility: pH-dependent low solubility

— US12350269B2 (Alexion Pharmaceuticals, Inc., priority 2015, dated 2025)
